BindingDB's records for doi:10.1016/j.bmcl.2003.11.079 (Millennium Pharmaceuticals, 2004)
pIC50: −log10 of the molar value.

Molecular target: Trypsin
Assay: Inhibitory concentration against trypsin was determined

pIC50: < 5.00
Compound: NS(=O)(=O)c1ccccc1-c1ccc(C(=O)Nc2ccccc2C(=O)Nc2ccc(Br)cn2)cc1 [2'-Sulfamoyl-biphenyl-4-carboxylic acid [2-(5-bromo-pyridin-2-ylcarbamoyl)-phenyl]-amide]
